Laboratory results published in PMC7580834, “Inhibition mechanism of naphthylphenylamine derivatives acting on the CDC25B dual phosphatase and analysis of the molecular processes involved in the high cytotoxicity exerted by one selected derivative in melanoma cells” (Journal of Enzyme Inhibition and Medicinal Chemistry, 2020).
Read-outs that look alike come from different tables or passages of the source. Residues, ends and D or L forms follow the SMILES beside them. *: point of attachment. Cbz = O=C(OCc1ccccc1)*; CH2F = FC*

Assays:
[1] = target: T1, CDC25B (Homo sapiens, UniProt P30305); assay: Intrinsic fluorescence quenching of recombinant CDC25B catalytic domain (Stern-Volmer); format: binding; details: for KSV (Stern-Volmer constant): 0.2 µM wild-type CDC25B, emission 357 nm, 20 °C, no OMFP; for K′D/Ki ratio: K′D of free CDC25B•inhibitor over Ki; for Kd: reciprocal of KSV, inhibitor concentration leading to 50% quenching of CDC25B emission, read-out: K′D of the complex, Free CDC25B•inhibitor
T1 sequence (P30305 377-551 isoform P30305-2 limits assumed): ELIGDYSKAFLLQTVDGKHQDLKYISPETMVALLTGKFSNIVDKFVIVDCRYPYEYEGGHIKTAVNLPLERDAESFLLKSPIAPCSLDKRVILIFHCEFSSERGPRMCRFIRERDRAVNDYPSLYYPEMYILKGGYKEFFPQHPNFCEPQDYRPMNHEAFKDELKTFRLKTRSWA
Description: (§1) Fluorescence spectra were recorded at 20 °C using a computer-assisted Cary Eclipse spectrofluorimeter (Varian, Palo Alto, CA, USA) equipped with an electronic temperature controller. The excitation wavelength was set at 280 nm and the excitation and emission slits were set at 10 and 20 nm, respectively. A 500 µL final volume of a 0.2 µM solution of CDC25B or CDC25B-C473S dissolved in 20 mM Tris•HCl, pH 7.8, 0.5 mM TCEP was directly prepared in the fluorimetric cuvette in the absence or in the presence of OMFP and/or some NPA derivatives. Serial pre-dilutions of the NPA derivatives or OMFP at increasing concentration were prepared in DMSO or methanol, respectively. Alongside, a convenient amount of the enzyme pre-dilution was prepared just before its usage for the experiment and stored on ice. When the combined effect of NPA derivative and OMFP was investigated, two enzyme pre-dilutions were prepared in the absence or in the presence of 5 µM OMFP. In order to evaluate the specific effect produced by any addition of solvent/ligand on the intrinsic fluorescence of the enzyme, 495 µL of the enzyme pre-dilution were placed in the fluorimetric cuvette and the relative spectrum was recorded; after the addition of 5 µL of each pre-dilution of solvent/ligand and fast mixing, the spectrum was recorded again. This procedure, repeated for each experimental point, allowed a normalisation of the specific effects produced by solvent/ligands. Furthermore, a correction was also applied for the little inner-filter effect due to the absorbance at 280 nm of the NPA derivative used at different concentrations; on the other hand, no correction was necessary for OMFP. All spectra, recorded at a scan speed of 120 nm/min, were normalised and corrected.

[2] = target: T2, CDC25B (Homo sapiens, UniProt P30305); assay: Kinetic studies of CDC25B phosphatase inhibition (OMFP substrate); format: biochemical; details: putative from Lineweaver-Burk plots (ref 18), confirmed by the fluorescence studies of this work
T2 sequence (P30305 1-580): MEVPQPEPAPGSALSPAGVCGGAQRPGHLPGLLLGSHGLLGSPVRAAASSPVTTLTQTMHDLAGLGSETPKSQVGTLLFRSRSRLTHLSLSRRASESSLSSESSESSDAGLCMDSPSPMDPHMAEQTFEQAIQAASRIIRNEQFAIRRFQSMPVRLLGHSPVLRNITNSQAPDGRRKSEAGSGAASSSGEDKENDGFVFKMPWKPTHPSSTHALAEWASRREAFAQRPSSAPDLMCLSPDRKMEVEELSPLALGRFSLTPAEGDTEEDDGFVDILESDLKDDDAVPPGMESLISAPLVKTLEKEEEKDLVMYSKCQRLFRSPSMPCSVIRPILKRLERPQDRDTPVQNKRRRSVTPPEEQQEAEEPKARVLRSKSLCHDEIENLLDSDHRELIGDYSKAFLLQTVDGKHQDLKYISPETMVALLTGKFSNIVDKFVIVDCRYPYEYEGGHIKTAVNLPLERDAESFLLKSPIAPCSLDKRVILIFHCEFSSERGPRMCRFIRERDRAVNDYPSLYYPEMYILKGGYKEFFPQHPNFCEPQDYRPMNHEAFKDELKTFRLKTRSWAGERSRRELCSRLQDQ

[3] = target: T3, OMFP-bound CDC25B-C473S (Homo sapiens, UniProt P30305, C487S); assay: Intrinsic fluorescence quenching of CDC25B-C473S in the presence of 5 µM OMFP (Stern-Volmer); format: binding; details: reciprocal of KSV; presence of 5 µM OMFP; read-out: K′D of the complex, OMFP-bound CDC25B-C473S•inhibitor
T3 sequence (P30305 370-580 C487S): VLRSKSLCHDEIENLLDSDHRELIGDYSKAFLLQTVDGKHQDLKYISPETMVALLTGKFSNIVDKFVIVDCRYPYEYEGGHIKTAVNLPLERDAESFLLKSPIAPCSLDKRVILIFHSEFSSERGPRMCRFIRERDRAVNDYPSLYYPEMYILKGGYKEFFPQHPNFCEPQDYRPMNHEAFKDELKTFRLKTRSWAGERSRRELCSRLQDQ
Description: (§2) The mutant form of CDC25B, carrying the C473S replacement (CDC25B-C473S), was obtained through site-directed mutagenesis of the CDC25B catalytic segment cloned in pET28a-CDC25B-cd. To this aim, the QuikChange site-directed mutagenesis kit (Stratagene, La Jolla, CA, USA) and the forward and reverse primers for C473S replacement (5′d-[…]-3′ and 5′d-[…]-3′) were used. Positive clones were obtained, and the nucleotide sequencing of the mutagenised segment excluded the presence of undesired mutations. The new vector was called pET28a-CDC25B-C473S-cd. The expression of the new vector and the purification of the recombinant form of CDC25B-C473S catalytic domain were carried out as previously reported for wild-type CDC25B catalytic domain[18], and similar yields were obtained. As expected, the mutant enzyme was unable to hydrolyse the synthetic substrate OMFP, when its activity was checked with the fluorimetric assay method previously described.
as §1

[4] = system: some tumour cells; set-up: method as in PMID 22524450; details: 200 µM; cited from earlier work
[5] = target: T2, CDC25B; details: cited from earlier work
[6] = system: A375 cells; assay: Apoptosis by cytofluorimetry after PI incorporation (subdiploid DNA content); format: cell-based, human; details: 100 µM Z-VAD-FMK plus 10 µM 4a, 48 h
Description: (§3) The human melanoma cell lines A375 and A2058, deriving from a primary tumour or lymph nodal metastasis, respectively, were kindly provided from CEINGE (Naples, Italy). Cells were grown in DMEM supplemented with 10% FBS, 2 mM L-glutamine, 100 IU/mL penicillin G and 100 µg/mL streptomycin in humidified incubator at 37 °C under 5% CO2 atmosphere. The cell line BJ-5ta, a human skin fibroblast immortalised with the human telomerase reverse transcriptase[30] was cultured in a 4:1 mixture of DMEM and Medium 199 supplemented with 4 mM L-glutamine, 4.5 g/L glucose, 1.5 g/L sodium bicarbonate, 10% FBS, 100 IU/mL penicillin G, […] streptomycin in humidified incubator at 37 °C under 5% CO2 atmosphere. All cells were split and seeded every 3 days and used during their exponential phase of growth. Cell treatments were usually carried out after 24 h from plating.
(§4) Cytofluorimetric analysis was used to determine the number of apoptotic nuclei essentially as previously described. Briefly, cells were seeded into six-well plates at 3 × 10^5 cells/well and after 24 h were treated with 4a or 0.5% (v/v) DMSO and incubated for different times. Then, cells were harvested with trypsin, and centrifuged, and the pellets were resuspended in 200 µL of a hypotonic lysis solution containing 50 µg/mL PI. After incubation at 4 °C for 30 min, cells were analysed with a FACScan flow cytometer (Becton Dickinson, Franklin Lakes, NJ, USA) to evaluate the presence of nuclei with DNA content lower than diploid.

[7] = system: A2058 cells; assay: as above; format: cell-based, human; details: 100 µM Z-VAD-FMK plus 10 µM 4a, 48 h
Description: as §3, §4

[8] = system: OMFP-bound CDC25B-C473S; assay: Intrinsic fluorescence quenching of CDC25B-C473S in the presence of 5 µM OMFP (Stern-Volmer); format: binding; details: for KSV (Stern-Volmer constant): 0.2 µM CDC25B-C473S, in the presence of 5 µM OMFP; for K′D/Ki ratio: K′D of OMFP-bound CDC25B-C473S•inhibitor over Ki
Description: as §2, §1

| Structure (SMILES) | KSV (Stern-Volmer constant) [1] [µM⁻¹] | K′D/Ki ratio [1] | Kd [1] [µM] | Inhibition mechanism [2] | Kd [3] [µM] | further results |
| --- | --- | --- | --- | --- | --- | --- |
| O=C(O)c1ccccc1Nc1ccc(O)c2ccccc12 [6e] | 0.035 | 10.6 | 28.6 | noncompetitive | – | – |
| Nc1ccc(Nc2cccc(C(=O)O)c2)c2ccccc12 [7i] | 0.069 | 10.4 | 14.5 | noncompetitive | – | – |
| Nc1cccc2c(Nc3cccc(C(=O)O)c3)cccc12 [7j] | 0.129 | 9.7 | 7.8 | noncompetitive | 15.1 | – |
| O=C(O)c1ccc(C(=O)c2ccccc2C(=O)O)cc1C(=O)O [NSC28620] | – | – | – | – | – | cell growth rate of some tumour cells [4]: reduced; Inhibition mechanism ([5]; lead compound): reversible competitive |
| COc1ccc2c(c1)Oc1cc(OP(=O)(O)O)ccc1C21OC(=O)c2ccccc21 (stereo not drawn) [OMFP, O-methylfluorescein phosphate] | – | – | – | – | – | Km ([5]; read-out: KM of the wild type CDC25B for the substrate): 2.7 ± 0.2 µM |
| COC(=O)C[C@H](NC(=O)[C@H](C)NC(=O)[C@@H](NC(=O)OCc1ccccc1)C(C)C)C(=O)CF [Z-VAD-FMK, reference compound] (Cbz-Val-Ala-Asp(OMe)-CH2F) | – | – | – | – | – | apoptosis level induced by 4a upon exposure to the caspase inhibitor [6]: partial but significant reduction; apoptosis level induced by 4a upon exposure to the caspase inhibitor [7]: partial but significant reduction |
| CCOC(=O)c1ccccc1Nc1cccc2ccccc12 [compound 3] | 0.011 | – | > 50 | uncompetitive | 24 | KSV (Stern-Volmer constant) [8]: 0.042 µM⁻¹; K′D/Ki ratio [8]: 8.6 |
| CCOC(=O)c1cccc(Nc2cccc3ccccc23)c1 [compound 4] | 0.016 | – | > 50 | uncompetitive | 43 | KSV (Stern-Volmer constant) [8]: 0.023 µM⁻¹; K′D/Ki ratio [8]: 5.9 |
